Source: US7939530B2, “Treatment of lymphoma using 10-propargyl-10-deazaaminopterin and gemcitabine” (Sloan-Kettering Institute for Cancer Research, priority 2004, dated 2011)

Legend:
SKI-DLBCL-1 xenografts = assay: TUNEL immunohistochemical staining for apoptosis in xenografts; assay type: in vivo, mice; conditions: day 21; four doses on days 0, 3, 7 and 10; MTX 40 mg/kg, PDX 60 mg/kg
Experimental: Immunohistochemical staining for apoptosis as measured by terminal deoxynucleotide transferase-mediated nick end-labeling (TUNEL) was performed on SKI-DLBCL-1 xenografts from mice sacrificed at day 21 following initiation of antifolate therapy. Mice received four doses of saline, MTX (40 mg/kg) or PDX (60 mg/kg) on days 0, 3, 7 and 10.

[1] = system: SKI-DLCL-1 lymphoma cells; assay: Trypan Blue Exclusion cytotoxicity assay of single agents and combinations; assay type: cell-based, human; conditions: MTX 10 nM, PDX 1 nM, Ara-C 40 nM, Gem 10 nM, control = 1
Description: As set forth in greater detail in the examples herein, combination therapy using PDX and gemcitabine has been tested in vitro and in in vivo model systems for efficacy against lymphoma. Table 1 sets forth data obtained in a cytotoxicity assay (Example 2) using SKI-DLCL-1 lymphoma cells. SKI-DLCL-1 is a diffuse large b cell lymphoma (DLBCL) cell line that is particularly resistant to PDX.
In Table 1, the additive effect is in each case the % of control for the single agents multiplied together. The expected additive effect for PDX+Gem is better than for MTX and ara-C, because the agents are individually better. What is observed for both MTX/AraC combinations and PDX/Gem combinations is that the actual result is better than the predicted additive result. The extent of this synergism is quantified in Table 1 as (actual-additive)/additive so that the amount of reduction that occurs through the use of the combination is expressed as a percentage of the expected additive benefit.
To evaluate cytotoxicity of combination of PDX and GEM, a Trypan Blue Exclusion Assay was performed by aliquoting 5×10^5 SKI-DLBCL cells into each well of a 24 well plate with a final volume of 1 milliliter. Each drug was added in duplicate to the plate wells as follows: alone (MTX 10 nM, PDX 1 nM, Ara-C 40 nM, or Gem 10 nM), PDX+Gem or MTX+Ara-C for 48 h (hours). For the scheduled administration of drug, PDX or MTX alone were dispensed in additional duplicate wells. After 24 hours Gem and Ara-C were added to these wells, respectively, and incubated for 48 hours. At the end of incubation, 20 l of each cell culture was added to 20 l of trypan blue, after which […] was added to a hemocytometer (Hausser Scientific, Horsham, Pa.), where viable cells were counted based upon the presence (dead cells) or exclusion (live cells) of dye.

Q: Which results are given for `C#CCC(Cc1cnc2nc(N)nc(N)c2n1)c1ccc(C(=O)N[C@@H](CCC(=O)O)C(=O)O)cc1` (some centres unmarked) [PDX, 10-Propargyl-10-deazaminopterin]?
A: apoptotic cells in tumor tissue (TUNEL) (SKI-DLBCL-1 xenografts): high level of apoptotic cells; fraction of control [1]: 0.84
